Measured values taken from PubChem BioAssay (NCI).
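Five compound concentrations were applied to cells in 96-well plates for 48 hours; endpoints were derived by simple linear interpolation of the resulting dose-response curve. TGI denotes the concentration required for complete inhibition of growth.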

Tests used:
Assay in all cases: DTP human tumour cell line panel, 48 h
NCI-H23 lung = tested on: NCI-H23 lung
U251 CNS = tested on: U251 CNS
MOLT-4 leukemia = tested on: MOLT-4 leukemia
MCF7 breast = tested on: MCF7 breast
HL-60(TB) leukemia = tested on: HL-60(TB) leukemia
HCC-2998 colon = tested on: HCC-2998 colon
RPMI-8226 leukemia = tested on: RPMI-8226 leukemia
SF-539 CNS = tested on: SF-539 CNS
COLO 205 colon = tested on: COLO 205 colon
NCI/ADR-RES ovarian = tested on: NCI/ADR-RES ovarian
ACHN renal = tested on: ACHN renal
UO-31 renal = tested on: UO-31 renal
HCT-15 colon = tested on: HCT-15 colon
EKVX NSCLC = tested on: EKVX NSCLC
NCI-H460 lung = tested on: NCI-H460 lung
DU-145 prostate = tested on: DU-145 prostate
SK-MEL-28 melanoma = tested on: SK-MEL-28 melanoma

Row | Structure (SMILES) | TGI (NCI-H23 lung) | TGI (U251 CNS) | TGI (MOLT-4 leukemia) | TGI (MCF7 breast) | TGI (HL-60(TB) leukemia) | TGI (HCC-2998 colon) | TGI (RPMI-8226 leukemia) | TGI (SF-539 CNS) | TGI (COLO 205 colon) | TGI (NCI/ADR-RES ovarian) | TGI (ACHN renal) | TGI (UO-31 renal) | TGI (HCT-15 colon) | TGI (EKVX NSCLC) | TGI (NCI-H460 lung) | TGI (DU-145 prostate) | TGI (SK-MEL-28 melanoma)
1 | C[n+]1c(-c2ccc(/C=N\Nc3ccnc(N/N=C/c4ccc(-c5cn6ccsc6[n+]5C)cc4)n3)cc2)cn2ccsc21 | > 100 µM | 94.5 µM | > 100 µM | > 100 µM | 57.4 µM | 77.2 µM | > 100 µM | 70.3 µM | 66.6 µM | > 100 µM | > 100 µM | > 100 µM | > 100 µM | 50 µM | > 100 µM | 78 µM | –
2 | O=c1c2c3c(sc2nc2n1sc1nc4sc5c(c4c(=O)n12)CCCC5)CCCC3 | 79.7 µM | > 100 µM | > 66.9 µM | 50.8 µM | 62.3 µM | > 76.8 µM | > 63.2 µM | > 100 µM | 64.7 µM | > 71.4 µM | > 100 µM | 43.9 µM | > 100 µM | 27.8 µM | > 100 µM | > 74.3 µM | > 100 µM
3 | NC(=S)NN=Cc1ccccc1OCc1cccc(COc2ccccc2C=NNC(N)=S)n1 | > 100 µM | 19.3 µM | > 100 µM | > 100 µM | > 100 µM | > 100 µM | > 100 µM | > 34.6 µM | > 100 µM | > 100 µM | > 100 µM | > 93.5 µM | > 100 µM | > 50.6 µM | > 100 µM | > 45.6 µM | > 100 µM
4 | CC1=C(C)C2(C#N)C(=O)N3C(=NC(c4ccco4)NC3c3ccco3)C2(C#N)C(c2ccco2)N1 (stereo not given) | > 100 µM | > 100 µM | > 100 µM | > 100 µM | > 100 µM | > 100 µM | > 100 µM | – | > 100 µM | > 100 µM | > 100 µM | > 100 µM | > 100 µM | > 100 µM | > 100 µM | > 100 µM | > 100 µM
5 | O=[N+]([O-])c1ccc(C2Nn3c(nnc3-c3cccc([N+](=O)[O-])c3)S2)cc1 (stereo not given) | > 100 µM | > 100 µM | > 100 µM | > 100 µM | > 100 µM | > 100 µM | > 100 µM | > 100 µM | > 100 µM | > 100 µM | > 100 µM | > 100 µM | > 100 µM | > 100 µM | > 100 µM | > 100 µM | –
6 | CCN(CC)CCC(=O)c1ccc(Cl)c(Cl)c1 | – | > 100 µM | 82.8 µM | 28.8 µM | > 100 µM | > 100 µM | > 100 µM | – | 91.4 µM | > 100 µM | > 100 µM | > 100 µM | > 100 µM | > 100 µM | > 100 µM | > 100 µM | 30.5 µM
7 | CC(C)=NC(C(=O)O)C(C)(C)S (stereo not given) | > 100 µM | > 100 µM | > 100 µM | > 100 µM | > 100 µM | – | > 100 µM | > 100 µM | > 100 µM | > 100 µM | > 100 µM | > 100 µM | > 100 µM | > 100 µM | > 100 µM | > 100 µM | > 100 µM
8 | O=C(Cc1csc2[n+]1C(=O)/C(=C/c1ccc(Cl)cc1)S2)Nc1ccccc1 | 91.3 µM | 32.1 µM | – | 66.1 µM | 74.2 µM | 39.3 µM | > 100 µM | 84.2 µM | 30.2 µM | 82.4 µM | 61.6 µM | > 100 µM | 90.6 µM | 53.4 µM | 48.8 µM | > 100 µM | > 100 µM
9 | COc1ccc(/C=N/NS(=O)(=O)c2ccc(/C=C3\NC(=O)NC3=O)cc2)cc1 | > 100 µM | > 100 µM | > 100 µM | > 100 µM | > 100 µM | > 100 µM | > 100 µM | – | > 100 µM | > 100 µM | > 100 µM | > 100 µM | > 100 µM | > 100 µM | > 100 µM | > 100 µM | > 100 µM
10 | CN1CC=C(C#CC(C)(C)O)CC1 | > 37.5 µM | > 37.5 µM | > 37.5 µM | > 37.5 µM | > 37.5 µM | > 37.5 µM | > 37.5 µM | – | > 37.5 µM | > 37.5 µM | > 37.5 µM | > 37.5 µM | > 37.5 µM | > 37.5 µM | > 37.5 µM | > 37.5 µM | > 37.5 µM
11 | CC(=O)OC[C@@]1(C)[C@@H]2[C@@H]3[C@@]4(CO[C@]3(C)C(=O)[C@@]3(OC(C)=O)C[C@H](C)[C@H](OC(C)=O)[C@@H]3[C@H]4OC(C)=O)[C@H](OC(=O)c3ccccc3)C[C@@H]21 | > 100 µM | > 100 µM | – | > 100 µM | > 100 µM | > 100 µM | > 100 µM | > 100 µM | > 100 µM | > 100 µM | > 100 µM | > 100 µM | > 100 µM | > 100 µM | > 100 µM | > 100 µM | > 100 µM
12 | S=c1[nH]nc(COc2ccc(Cl)cc2)n1-c1ccccc1 | > 100 µM | > 100 µM | > 100 µM | > 100 µM | > 100 µM | > 100 µM | – | > 100 µM | > 100 µM | > 100 µM | > 100 µM | > 100 µM | > 100 µM | > 100 µM | > 100 µM | > 100 µM | > 100 µM
13 | Cc1cc2c(cc1Cl)SC(NNC(=O)c1ccccc1)=NS2(=O)=O | > 10 µM | > 10 µM | > 10 µM | 5.76 µM | > 10 µM | > 10 µM | > 10 µM | > 10 µM | > 10 µM | > 10 µM | > 10 µM | – | > 10 µM | > 10 µM | > 10 µM | > 10 µM | > 10 µM
14 | CC(/C=C/c1ccccc1)=N\NC(=S)N/N=C(C)/C=C/c1ccccc1 | > 100 µM | 16.2 µM | > 100 µM | > 100 µM | > 100 µM | > 100 µM | – | 47.2 µM | > 100 µM | 99.5 µM | > 100 µM | > 100 µM | > 100 µM | > 100 µM | 25.6 µM | > 100 µM | > 100 µM
